# From ChEMBL document CHEMBL2331417, “Kinetic and anion inhibition studies of a β-carbonic anhydrase (FbiCA 1) from the C4 plant Flaveria bidentis” (Bioorg Med Chem Lett, 2013)
# Columns and labels:
# [1] = Inhibition of Flaveria bidentis beta-carbonic anhydrase-1 preincubated for 15 mins by stopped flow CO2 hydration assay
# [2] = Inhibition of Helicobacter pylori beta-carbonic anhydrase preincubated for 15 mins by stopped flow CO2 hydration assay
SMILES,Ki [1],Ki [2]
O=C([O-])O.[Na+] [SODIUM BICARBONATE],660 µM,–
[F-].[Na+] [SODIUM FLUORIDE],710 µM,670 µM
O=C([O-])[O-].[Na+].[Na+] [SODIUM CARBONATE],840 µM,420 µM
O=S([O-])O.[Na+] [SODIUM BISULFITE],55300 µM,630 µM
NS(N)(=O)=O [SULFAMIDE],4 µM,72 µM
O=[Se](=O)(O)O [SODIUM SELENATE],24500 µM,650 µM
[Cl-].[Na+] [SODIUM CHLORIDE],740 µM,560 µM
CCN(CC)C(=S)S [DITIOCARB SODIUM],8 µM,7.4 µM
N=C=[Se] [SODIUM ISOSELENOCYANATE],880 µM,970 µM
O=S(=O)(O)ONOS(=O)(=O)O [SODIUM IMINODISULFATE],50900 µM,700 µM
N=C=S [SODIUM ISOTHIOCYANATE],830 µM,680 µM
O=[N+]([O-])[O-].[Na+] [SODIUM NITRATE],780 µM,780 µM
O=S(=O)([O-])[O-].[Na+].[Na+] [SODIUM SULFATE ANHYDROUS],620 µM,570 µM
O=P(O)(O)OP(=O)(O)O [SODIUM PYROPHOSPHATE],830 µM,750 µM
[Br-].[Na+] [SODIUM BROMIDE],670 µM,380 µM
O=BOB(O)OB(O)OB=O [SODIUM TETRABORATE],860 µM,680 µM
OB(O)c1ccccc1 [PHENYLBORONIC ACID],8 µM,73 µM
O=NO [SODIUM NITRITE],570 µM,670 µM
S=C(S)S [SODIUM CARBONOTRITHIOATE],60 µM,210 µM
F[B-](F)(F)F.[Na+] [SODIUM TETRAFLUOROBORATE],> 200000 µM,> 200000 µM
NS(=O)(=O)O [SULFAMATE],5 µM,94 µM
[N-]=[N+]=[N-] [SODIUM AZIDE],460 µM,800 µM
O=[As](O)(O)c1ccccc1 [PHENYLARSONIC ACID],6 µM,–
O=[Te](=O)(O)O [SODIUM TELLURATE],900 µM,450 µM
S [SODIUM HYDROSULFIDE],860 µM,580 µM
[O-][Cl+3]([O-])([O-])O [SODIUM PERCHLORATE],> 200000 µM,6500 µM
[I-].[Na+] [SODIUM IODIDE],710 µM,630 µM
O=S(=O)(O)OOS(=O)(=O)O [SODIUM PERSULFATE],870 µM,930 µM
